Measured values as given in patent publication US6114326A, “Use of cabergoline in the treatment of restless legs syndrome” (priority 1999, dated 2000).
Entries after “also recorded” stand apart in the source; their conditions may differ.

Experiments:
[1] = system: restless legs syndrome patients; assay: Physician's rating (CGI) in 12-week open label trial; format: in vivo
Procedure: (§1) Following a 2-week baseline period, all patients were treated with cabergoline in an open trial for 12 weeks. Apart from levodopa, patients had to stop taking any medication known to have positive or negative effect on RLS two weeks before baseline (i.e., other dopamine agonists, benzodiazepines, opioids or other psychotropic agents). Patients who were on levodopa therapy were allowed to either stop levodopa prior to study entry or to continue, taper or discontinue levodopa during the study. To prevent well known peripheral dopaminergic side-effects such as nausea, vomiting, vertigo and arterial hypotension domperidone (not available in the United States) was comedicated initially and also tapered if possible. […] Neurological case history, examination, electrocardiogramm, chest x-ray and polysomnography were performed to ensure that selection criteria were fulfilled. A two-night PSG (including one night of adaptation) was performed to evaluate the diagnosis and inclusion/exclusion criteria regardless if patients were on or off levodopa. After a 12-week treatment period patients were studied again for one night in the sleep laboratory. Subjective ratings were obtained at baseline, week 4, week 8 and at the endpoint after 12 weeks. In addition patients were monitored by phone calls to note any adverse events and to determine whether to increase the dosage of the study drug, to decrease levodopa and to decrease domperidone. The time schedule of phone calls was variable and the frequency mostly dependent on the presence of simultaneous levodopa therapy.
Physician's rating. The physician rated the severity of illness at baseline (normal to extremely ill), the global improvement (general condition very much worse to very much better) and the side effects by use of the Clinical Global Impressions (CGI). Safety. Safety of Cabergoline was assessed to the type and frequency of adverse event, clinically significant changes in laboratory data or ECG and premature discontinuation of study participation. Adverse events were classified as serious versus nonserious and characterized by intensity, relationship to drug treatment, frequency, course and therapeutic intervention.
(§2) Statistical analysis. Statistical evaluation was performed as intent-to-treat analysis using descriptive statistics.

[2] = system: restless legs syndrome patients; assay: Patients' subjective ratings (PGI, RLS severity, sleep satisfaction, sleep diary, quality of life) in 12-week open label trial; format: in vivo
Procedure: Efficacy was assessed by polysomnography and subjective ratings.
as §1
Dosing. Study medication was available in tablets containing 0.5 mg, 1 mg or 2 mg Cabergoline (Cabaseril®, Pharmacia & Upjohn, Erlangen, Germany). Medication was taken 2 hours prior to bedtime. Initial therapy consisted of one 0.5 mg tablet. […] The increased dose could be decreased again if necessary. All patients were initially comedicated with domperidone 20 mg t.i.d. which could be tapered and stopped if possible. Subjects who were pretreated with levodopa were asked to decrease levodopa simultaneously if possible.
Subjective ratings. After each night of recording and at each visit at week 2 and 4, patients rated the severity of illness (normal to extremely ill), the therapeutic effects by rating their global improvements by use of the Patients Global Impressions (general condition very much worse to very much better), the severity of RLS symptoms during the time of falling asleep, during the night and during the day (scale: 0=not present to 10=very strong) and sleep satisfaction (very unsatisfied to very satisfied). In addition patients rated their quality of life, concerning well being and complaints during the previous week, using modified 50-mm Hamburger Visual Analogue Scale. Patients also filled in a sleep diary at each study visit rating the following symptoms: global assessment of sleep (very bad to very good night), sleep latency, sleep time, frequency of awakenings and urge to move the legs at time falling asleep, during the night and during the day (scale: 0=not present to 10=very strong).
as §2

[3] = system: D2 and D3 molecular receptors; conditions: cited from earlier work
D2 family of receptors = conditions: cited from earlier work
[4] = Half-life and duration of action; format: in vivo; conditions: 'here we report'
[5] = system: restless legs syndrome patients; assay: Safety / adverse events, tolerability, augmentation in 12-week open label trial; format: in vivo
Source text: as §1, with “Apart” for “Following a 2-week baseline period, all patients were treated with cabergoline in an open trial for 12 weeks. Apart”, “therapy. Dosing. […] Medication was taken 2 hours prior to bedtime. Initial therapy consisted of one 0.5 mg tablet. […] The increased dose could be decreased again if necessary. […] Subjects who were pretreated with levodopa were asked to decrease levodopa simultaneously if possible. Physician's rating. The physician rated the severity of illness at baseline (normal to extremely ill), the global improvement (general condition very much worse to very much better) and the side effects by use of the Clinical Global Impressions (CGI). Safety. Safety of Cabergoline was assessed to the type and frequency of adverse event, clinically significant changes in laboratory data or ECG and premature discontinuation of study participation. Adverse events were classified as serious versus nonserious and characterized by intensity, relationship to drug treatment, frequency, course and therapeutic intervention.” for “therapy.”

[6] = cited to Ahlskog et al. 1996; cited from earlier work
D1 family of receptors = conditions: cited from earlier work
[7] = of 9 patients, under cabergoline

SMILES: C=CCN1C[C@H](C(=O)N(CCCN(C)C)C(=O)NCC)C[C@@H]2c3cccc4[nH]cc(c34)C[C@H]21 [Cabergoline, 1((6-allylergolin-8β-yl) -carbony.)-1-(3-(dimethylamino)propyl)-3-ethylurea]
- global improvement (physician's rating, in words) ([1]; in vivo): significant global improvement
- general condition minimally better (physician's rating), number of patients ([1]; of 9 patients): 1
- general condition much better (physician's rating), number of patients ([1]; of 9 patients): 3
- general condition very much better (physician's rating), number of patients ([1]; of 9 patients): 5
- subjective and objective sleep parameters (in words) ([2]; 12-week treatment, 1 to 4 mg (mean 2.1 mg)): marked improvement
- relief of RLS symptoms (in words) ([2]; all patients, 12 weeks, 1 to 4 mg single evening dose): significant relief or became free of RLS symptoms; also recorded: complete or significant relief of RLS symptoms
- times patients had to get up per night (sleep diary) ([2]; endpoint, baseline 2.1): 0.6 times per night
- duration of efficacy in RLS therapy ([2]; human, in vivo): 24 h
- markedly satisfied with sleep, number of patients ([2]; of 9 patients, endpoint): 4
- moderately satisfied with sleep, number of patients ([2]; of 9 patients, endpoint): 1
- moderately unsatisfied with sleep, number of patients ([2]; of 9 patients, endpoint): 2
- severity of illness rated borderline (PGI), number of patients ([2]; of 9 patients, endpoint): 2
- severity of illness rated moderately ill (PGI), number of patients ([2]; of 9 patients, endpoint): two
- severity of illness rated normal (PGI), number of patients ([2]; of 9 patients, endpoint, at baseline extremely (2), very (4) or markedly (3) ill): 5
- very satisfied with sleep, number of patients ([2]; of 9 patients, endpoint, baseline very (1), markedly (6) or moderately (2) unsatisfied): 2
- general condition much better (PGI), number of patients [2, 7]: 3
- general condition very much better (PGI), number of patients [2, 7]: 6
- RLS severity during the time of falling asleep ([2]; scale 0=not present to 10=very strong, last week, baseline 4.9±4.3): 0.4±0.7
- RLS severity during the day ([2]; scale 0=not present to 10=very strong, last week, baseline 5.1±3.4): 0.8±1.7
- RLS severity during the night ([2]; scale 0=not present to 10=very strong, last week, baseline 6.7±2.7): 1.6±2.6
- global quality of the previous night (sleep diary) ([2]; scale zero (very bad) to 10 (very good), endpoint, baseline 3.1): 6.9
- efficacy in restless legs syndrome (in words) ([2]; single evening dose, incl. severe RLS and levodopa augmentation): effective and well tolerated; also recorded: very effective and well tolerated
- quality of life (Hamburger Visual Analogue Scale), in words ([2]; vs. baseline conditions): much better
- D2 versus D3 binding (in words) [3]: greater D2 over D3 binding
- D2 family agonist activity (in words) (D2 family of receptors): full D2 family agonist
- duration of action (may last) [4]: ≤ 65 h
- peripheral or other dopaminergic side effects ([5]; 4 mg cabergoline monotherapy): did not see peripheral or other dopaminergic side effects
- total adverse events probably related to study drug ([5]; 9 patients, 12 weeks): 8
- augmentation under cabergoline ([5]; 12-week treatment): lower incidence; also recorded: did not observe augmentation
- duration and intensity of adverse events ([5]; all adverse events): temporary and considered to be mild to moderate
- reversal of levodopa-evoked augmentation of RLS symptoms ([5]; all patients): reversible
- discontinuation of levodopa during study ([5]; all patients initially on levodopa): discontinued levodopa treatment
- tolerability (in words) ([5]; domperidone stopped in all patients): excellent tolerability; also recorded: good tolerability
- changes in laboratory data or ECG ([5]; in vivo): No significant changes
- serious side effects / serious adverse events ([5]; in vivo): no serious side effects; also recorded: no serious adverse events
- withdrawal / discontinuation of patients ([5]; in vivo): no patient withdrew; also recorded: no patient discontinued
- patients with adverse events probably related to study drug ([5]; of 9 patients): 5 patients
- diarrhea ([5]; probably related side effects): 1
- dizziness ([5]; probably related side effects): 2
- headache ([5]; probably related side effects): 2
- vertigo ([5]; probably related side effects): 2
- nausea ([5]; probably related, led to temporary dose reduction): 1 patient
- duration of action [6]: at least 24 hours
- D1 family activity (in words) (D1 family of receptors): partial D1 activity; also recorded: partial DI family activity
